Experimental findings from PubChem BioAssay AID2124 (Sanford-Burnham Center for Chemical Genomics, 2009) are described below.

Inconclusive results are not listed. Activity calls are given as the source filed them. How the calls were made is not given here; tested in MIN6 cells.

The assay is described as follows: cell-permeable autofluorescent compounds in GFP channel, dose response, artefact control, imaging, high-content imaging (AID 2124).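 On all read-outs here: cells exposed to compound for 48 hours before fixing.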 The conditions noted are these: cells, GFP-channel autofluorescence, high-content imaging, at 10 µM; for z-score: stronger effect = higher value.

In the case of `O=C(OCC(=O)N1CCN(C(=O)c2ccco2)CC1)c1ccccc1OCc1ccccc1`, the z-score was -0.38 (inactive) and the cell count turned out to be 2850 cells.

Take `Cc1cc(/C=C2\NC(=S)N(C)C2=O)ccc1N1CCCC1`: the z-score is 0.07 and the cell count came out at 2980 cells.

Regarding `CCOC(=O)N1CCN(C(=O)NC2CCCCC2)CC1`, the z-score is -0.38 (inactive) and the cell count is 3150 cells.

For `CCC(=O)OCC(=O)c1c(N)n(Cc2ccccc2)c(=O)n(C)c1=O`, the z-score is -0.33 (inactive) and the cell count was found to be 2890 cells.

As to `CCCC1C2CN(C(C)C)CC=C2C(C#N)=C(N)C1(C#N)C#N` (configuration not stated), the z-score is 0.45 and the cell count came out at 2800 cells.

Turning to `CCc1c(C(=O)NC2CCCCC2)[nH]c(C)c1C(C)=O`, the z-score is -0.25 (inactive) and the cell count worked out at 3040 cells.

`O=[N+]([O-])c1ccc(C2=NN(c3ccccc3)C(c3ccco3)C2)cc1` (configuration not stated): the z-score was 0.17 and the cell count was determined as 3180 cells.

For `CC(C)=NNc1nc2c(c(=O)n(C)c(=O)n2C)n1CCc1ccccc1`, the z-score is -0.39 (inactive) and the cell count was 3610 cells.

Consider `Cc1cc(NC(=S)N(Cc2ccc(Br)cc2)Cc2ccc(C(=O)O)cc2)ccc1Cl`, for which the z-score is -0.38 (inactive) and the cell count is 2830 cells.

On to `CN(C)c1ccc(/C=C2\SC(=O)N(CCc3nnc(N)s3)C2=O)cc1`, for which the z-score was -0.3 (inactive) and the cell count worked out at 3290 cells.

As to `COc1ccccc1Nc1nc(Cl)c(C=O)s1`, the z-score is -0.31 (inactive) and the cell count was 2970 cells.

With `Nc1cccc2c1C(=O)N(C(=O)c1cccc(S(=O)(=O)N3CCCC3)c1)C2=O`, the z-score is -0.39 (inactive) and the cell count stood at 3320 cells.

Regarding `COc1ccccc1NC(=O)/C=C1\SCC(=O)N1C`, the z-score is -0.25 (inactive) and the cell count turned out to be 3000 cells.

With `CC(=O)Nc1sc(/C(C#N)=C\c2cccc(Cl)c2)nc1-c1ccc(C)cc1`, the z-score is 1.12 and the cell count was 3000 cells.

As for `COc1cc(S(=O)(=O)N2CCOCC2)ccc1NC(=O)COC(=O)C12CC3CC(CC(C3)C1)C2`, the z-score was -0.39 (inactive) and the cell count turned out to be 3410 cells.

In the case of `N#Cc1c2c(c(-n3cnc4ccccc43)n3c1nc1ccccc13)CCC2`, the z-score was -0.25 (inactive) and the cell count turned out to be 3100 cells.

Take `COc1cccc(C(=O)Nc2ccccc2C(=O)N2CCCC2)c1`: the z-score is -0.39 (inactive) and the cell count worked out at 3120 cells.

Turning to `CC1CCCC(C)N1C(=O)CSc1nnc(-c2cccs2)o1` (configuration not stated), the z-score is -0.33 (inactive) and the cell count worked out at 2440 cells.

Regarding `COc1ccc(NC(=O)CSc2nnc(-c3cccs3)n2C)cc1OC`, the z-score was -0.39 (inactive) and the cell count is 2880 cells.

Take `C=CCn1c(=NC(=O)c2cc(-c3cccs3)nc3ccccc23)sc2cc(S(N)(=O)=O)ccc21`: the z-score is -0.33 (inactive) and the cell count was 2770 cells.

As to `N#Cc1ccc(-c2ccccc2)nc1SCC(=O)c1cccc(Cl)c1`, the z-score was -0.23 (inactive) and the cell count was 3340 cells.

For the compound `C(=C/c1nccc2c1[nH]c1ccccc12)/c1ccc2c(c1)OCO2`, the z-score is 0.26 and the cell count is 1910 cells.

Turning to `O=C(COc1ccc(Cl)cc1)NCc1nnc(SCC(=O)NC2CCCCC2)o1`, the z-score was -0.32 (inactive) and the cell count came out at 3660 cells.

Take `C=CCN1C(=O)/C(=C/C=C2/N(CC)c3ccc(S(=O)(=O)N(C)C)cc3N2CC)SC1=S`: the z-score was 0.26 and the cell count turned out to be 2740 cells.

On to `N#C/C(=C\c1ccc(-c2ccc(C(=O)O)cc2)o1)c1nc2ccccc2[nH]1`, for which the z-score was -0.29 (inactive) and the cell count came out at 3280 cells.

For the compound `Cc1ccc(CN=Cc2[nH]c3ccc(Br)c(Cl)c3c2O)cc1`, the z-score was -0.33 (inactive) and the cell count amounted to 2930 cells.

With `O=C1S/C(=C\c2ccc(N3CCOCC3)o2)C(=O)N1Cc1ccc(F)cc1`, the z-score was 1.17 and the cell count is 665 cells.

In the case of `Cc1ccc2[nH]c(-c3ccccc3)c(CN(C)C)c(=O)c2c1`, the z-score is -0.33 (inactive) and the cell count was 3240 cells.

For `O=C(NCC1CCCO1)C1CCN(S(=O)(=O)N2CCCC2)CC1` (configuration not stated), the z-score is -0.33 (inactive) and the cell count is 3190 cells.

In the case of `CCCN1CC=C2C(C#N)=C(N)C(C#N)(C#N)C(c3cc(OC)ccc3OC)C2C1` (configuration not stated), the z-score is 0.52 and the cell count is 3140 cells.

`N#C/C(=C\C1=C(N2CCOCC2)C(=C\c2ccc(Cl)cc2)/CC1)C(=O)Nc1ccccc1F`: the z-score is -0.24 (inactive) and the cell count came to 3010 cells.

For the compound `CC1CCN(S(=O)(=O)c2ccc3c(c2)c(=O)c(C(=O)N2CCCCC2)cn3C)CC1`, the z-score is -0.33 (inactive) and the cell count worked out at 2850 cells.

`Cc1cc(/C=C2\SC(=S)NC2=O)c(C)n1-c1ccc(O)cc1`: the z-score was -0.36 (inactive) and the cell count was determined as 3000 cells.

Turning to `N=c1oc2c3c4c(cc2cc1C(=O)Nc1ccccc1)CCCN4CCC3`, the z-score was 0.18 and the cell count worked out at 3140 cells.

Consider `Cc1ccc(Nc2nc(Cl)c(C=O)s2)cc1Cl`, for which the z-score was -0.27 (inactive) and the cell count was determined as 2840 cells.

For the compound `CCN1C(=O)/C(=C/C=C2\N(CC)c3cc(S(=O)(=O)N(C)C)ccc3N2c2ccccc2)SC1=S`, the z-score is 0.11 and the cell count is 2840 cells.

As to `N#C/C(=C\C1=C(N2CCOCC2)C(=C/c2cccc([N+](=O)[O-])c2)/CC1)C(=O)Nc1ccccc1F`, the z-score was -0.32 (inactive) and the cell count turned out to be 2940 cells.

With `CCN1CCN(C2=CC3=CC(=C(C#N)C#N)CCC3CC2)CC1` (configuration not stated), the z-score was 1.63 and the cell count was 3180 cells.

In the case of `CCCCNC(=O)/C(C#N)=c1\s/c(=C\c2ccccc2OC(F)F)c(=O)n1CCCOC`, the z-score was -0.37 (inactive) and the cell count stood at 3260 cells.

Take `COC(=O)c1cnn2c(C(F)(F)F)cc(-c3ccc(F)cc3)nc12`: the z-score was -0.33 (inactive) and the cell count amounted to 2980 cells.

Turning to `COc1cc2cc(C)c3nnc(SCC(=O)Nc4cc(C)on4)n3c2cc1OC`, the z-score is -0.33 (inactive) and the cell count amounted to 2840 cells.

Take `C=CCn1c(-c2oc3nc(-c4ccccc4)cc(-c4ccccc4)c3c2N)n[nH]c1=S`: the z-score is -0.33 (inactive) and the cell count was 2820 cells.

Turning to `CN1CCN(Cc2nc(N)nc(Nc3ccc4c(c3)OCCO4)n2)CC1`, the z-score was -0.39 (inactive) and the cell count amounted to 3330 cells.

In the case of `COc1ccc(N(C(=O)Cc2cccs2)C2C=CS(=O)(=O)C2)cc1` (configuration not stated), the z-score was -0.39 (inactive) and the cell count is 3350 cells.

Consider `COc1cccc(/C=N/NC(=O)c2oc3nc(-c4ccccc4)cc(-c4ccco4)c3c2N)c1`, for which the z-score was -0.32 (inactive) and the cell count is 3030 cells.

As to `CN(C)c1ccc(/C=C2\SC(=S)N(Nc3ncc(C(F)(F)F)cc3Cl)C2=O)cc1`, the z-score was 0.57 and the cell count worked out at 2530 cells.
